According to patent US11214803B2, “Modulators of YAP1 expression” (Ionis Pharmaceuticals, Inc., priority 2019, dated 2022):
Strand notation (5' to 3'): a small letter for the sugar, then the base; units joined by * are phosphorothioate-linked, units joined directly phosphodiester-linked; [ ] holds rarer units or linkages, { } end groups; capitals alone tell only the bases. k = constrained ethyl (cEt); [5mC] = 5-methylcytosine; d = 2'-deoxy (DNA)

System: Yap1 mRNA
Assay: Dose-dependent inhibition of human Yap1 in A-431 cells (Example 8, 10,000 cells per well, RTS4814)
Assay type: cell-based
Details: free uptake, approximately 48 hours, RTS4814; for Yap1 mRNA, % UTC: A-431 cells, 10,000 cells per well; for IC50: A-431 cells, linear regression on log/linear plot
Procedure, shortened: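 A-431 cells (10,000/well) dosed with modified oligonucleotides by free uptake; Yap1 mRNA measured ~48 h later with primer-probe set RTS4814, normalized to total RNA (RIBOGREEN). Values are % of untreated control; IC50 from linear regression on log/linear plot.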

| Substance | Yap1 mRNA, % UTC (31.3 nM) [% UTC] | Yap1 mRNA, % UTC (125.0 nM) [% UTC] | Yap1 mRNA, % UTC (500.0 nM) [% UTC] | Yap1 mRNA, % UTC (2000.00 nM) [% UTC] | IC50 [nM] |
| --- | --- | --- | --- | --- | --- |
| 1075816 (kT*kA*kG*dT*dA*dT*dA*dA*dA*dG*d[5mC]*dA*dG*kG*kG*k[5mC]; antisense) [compound 1075816] | 66 | 29 | 12 | 8 | 100 |
| 1076490 (k[5mC]*k[5mC]*kA*dA*dA*dA*dT*dA*dG*dG*dT*dG*dA*kG*kT*k[5mC]; antisense) [compound 1076490] | 36 | 9 | 4 | 3 | < 20 |
| 1075810 (kG*kT*kA*dG*d[5mC]*dA*dA*dT*dA*dG*dA*dG*dT*kA*kA*k[5mC]; antisense) [compound 1075810] | 67 | 28 | 12 | 7 | 100 |
| 1076516 (k[5mC]*kA*kT*dA*dA*dA*d[5mC]*dA*dT*dG*dA*dG*dT*kG*kG*kT; antisense) [compound 1076516] | 64 | 39 | 18 | 13 | 100 |
| 1075498 (k[5mC]*kA*kT*dT*dA*dT*dA*dT*dA*dA*dT*dG*d[5mC]*kA*kG*kG; antisense) [compound 1075498] | 82 | 40 | 21 | 16 | 100 |
| 1075876 (antisense kG*kT*kA*dT*dT*dT*dA*dT*dG*dA*dT*dG*dA*kT*kT*k[5mC]) [compound 1075876] | 47 | 20 | 7 | 5 | < 20 |
| 1075081 (antisense kG*kA*kT*dT*dA*d[5mC]*dA*dA*dA*dG*dA*d[5mC]*dA*kG*k[5mC]*k[5mC]) [compound 1075081] | 76 | 50 | 22 | 9 | 100 |
| 1076458 (k[5mC]*kT*kT*dA*dA*dT*dT*dA*dG*d[5mC]*d[5mC]*dT*d[5mC]*kA*kG*kT; antisense) [compound 1076458] | 88 | 52 | 23 | 10 | 200 |
| 1075939 (antisense k[5mC]*kT*kT*dG*dA*dA*dT*dA*dT*dA*dT*dG*dG*kG*kT*kT) [compound 1075939] | 46 | 19 | 10 | 8 | < 20 |
| 1074595 (DNA kT*kA*kG*dA*dA*dG*dT*dA*dG*dG*dA*dG*d[5mC]*kA*kA*kG; antisense) [compound 1074595] | 67 | 21 | 8 | 4 | 40 |
| 1074368 (kG*kA*kT*dA*dG*dT*dA*dT*d[5mC]*dA*d[5mC]*d[5mC]*dT*kG*kT*kA; antisense) [compound 1074368] | 67 | 34 | 15 | 10 | 100 |
| 1076323 (k[5mC]*kA*kA*dT*dT*dT*dA*d[5mC]*dA*dA*dG*dT*dG*kA*kG*k[5mC]; antisense) [compound 1076323] | 41 | 35 | 13 | 5 | < 20 |
| 1075078 (antisense k[5mC]*kA*kA*d[5mC]*dT*dA*dT*dA*d[5mC]*dG*dG*dT*d[5mC]*k[5mC]*kA*kT) [compound 1075078] | 65 | 32 | 12 | 4 | 100 |
| 1075041 (antisense kG*kA*kT*dT*dA*dT*dA*dA*dA*dG*dA*dG*dG*k[5mC]*kT*k[5mC]) [compound 1075041] | 62 | 31 | 11 | 7 | 50 |
| 1074407 (kT*kA*kA*dA*dG*dT*dA*dT*d[5mC]*dT*dT*dG*d[5mC]*kT*kG*kG; antisense) [compound 1074407] | 55 | 27 | 13 | 8 | < 20 |
| 1076448 (k[5mC]*kT*kT*dA*dT*dA*dA*dT*dG*d[5mC]*dA*dA*dT*k[5mC]*k[5mC]*kT; antisense) [compound 1076448] | 61 | 19 | 4 | 3 | < 20 |
| 1076293 (kG*k[5mC]*kT*dT*dA*dT*dT*dA*dT*dT*dG*dA*dG*kT*kT*kA; antisense) [compound 1076293] | 49 | 18 | 6 | 5 | < 20 |
| 1074795 (k[5mC]*k[5mC]*kA*dA*dA*dT*d[5mC]*dA*dA*dT*dG*dT*dG*k[5mC]*kT*k[5mC]; antisense) [compound 1074795] | 38 | 14 | 7 | 5 | < 20 |
| 1076294 (kT*kA*kT*dA*dT*dT*dA*dG*dT*dG*d[5mC]*d[5mC]*d[5mC]*k[5mC]*k[5mC]*kT; antisense) [compound 1076294] | 76 | 50 | 21 | 11 | 100 |
| 1076426 (kA*k[5mC]*kG*dG*dG*dA*dA*dA*dA*dT*dT*d[5mC]*dT*kG*kG*kA; antisense) [compound 1076426] | 68 | 46 | 24 | 18 | 100 |
| 1074629 (DNA kG*kA*kG*dA*dT*dT*dT*dT*dA*dT*dG*d[5mC]*d[5mC]*kT*kG*kT; antisense) [compound 1074629] | 21 | 5 | 3 | 3 | < 20 |
| 1074723 (antisense kG*kG*kT*dA*dA*dA*dG*dG*dA*dA*dG*dA*dT*k[5mC]*kT*k[5mC]) [compound 1074723] | 56 | 24 | 11 | 8 | < 20 |
| 1074563 (DNA kT*kG*kA*dA*dT*dT*d[5mC]*d[5mC]*dA*dA*dT*d[5mC]*dG*kA*kG*kA; antisense) [compound 1074563] | 80 | 31 | 7 | 5 | 100 |
| 1076427 (k[5mC]*kA*kA*dA*dT*dT*dT*dA*d[5mC]*dT*dG*dA*dT*k[5mC]*kT*k[5mC]; antisense) [compound 1076427] | 75 | 30 | 9 | 4 | 100 |
| 1075242 (k[5mC]*kA*kG*dG*dG*dA*dT*dA*dA*dT*dT*dA*d[5mC]*kT*kA*kA; antisense) [compound 1075242] | 71 | 39 | 18 | 12 | 100 |
| 1075115 (kG*kT*kA*dT*dA*dG*d[5mC]*d[5mC]*dT*dT*dA*dT*dT*k[5mC]*kT*kT; antisense) [compound 1075115] | 57 | 41 | 17 | 9 | 100 |
| 1076327 (kG*kA*kT*dA*dA*dG*d[5mC]*dA*dA*dG*dG*dT*dT*k[5mC]*kT*k[5mC]; antisense) [compound 1076327] | 73 | 38 | 17 | 9 | 100 |
| 1076256 (kT*kT*kA*dT*dT*dT*dA*dG*dG*d[5mC]*d[5mC]*d[5mC]*d[5mC]*kA*kT*kA; antisense) [compound 1076256] | 68 | 33 | 11 | 6 | 100 |
| 1074315 (antisense kG*kA*kT*dT*dG*dA*dT*dA*dT*dT*d[5mC]*d[5mC]*dG*k[5mC]*kA*kT) [compound 1074315] | 57 | 26 | 9 | 5 | 30 |
| 1075458 (antisense k[5mC]*k[5mC]*kA*d[5mC]*dA*dA*dT*dA*dT*dA*d[5mC]*dT*d[5mC]*k[5mC]*kA*kA) [compound 1075458] | 74 | 43 | 17 | 6 | 100 |
